Reference: patent publication US20260308109A1 (priority 2022, published 2026)
Like-named read-outs stand apart in the source and are kept apart here.

Key:
[1] = molecular target: T1, 5-HT2C (Homo sapiens, UniProt P28335); test: cell-based; design: expressed in transfected cells; host or cells: HEK293; Emax: dose or concentration left out as unconfirmed
T1 sequence (P28335 33-458): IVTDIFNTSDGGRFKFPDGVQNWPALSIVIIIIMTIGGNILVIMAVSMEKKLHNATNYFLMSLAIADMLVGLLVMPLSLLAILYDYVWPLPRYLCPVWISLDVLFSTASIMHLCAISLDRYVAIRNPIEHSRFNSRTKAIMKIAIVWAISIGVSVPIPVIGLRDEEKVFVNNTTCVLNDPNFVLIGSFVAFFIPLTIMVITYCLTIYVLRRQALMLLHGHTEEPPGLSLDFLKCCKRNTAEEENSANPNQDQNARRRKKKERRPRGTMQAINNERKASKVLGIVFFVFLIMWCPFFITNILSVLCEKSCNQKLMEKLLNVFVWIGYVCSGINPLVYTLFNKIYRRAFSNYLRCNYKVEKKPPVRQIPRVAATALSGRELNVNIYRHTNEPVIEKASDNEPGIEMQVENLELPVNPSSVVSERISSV

[2] = molecular target: T2, 5-HT2B (Homo sapiens, UniProt P41595); test: cell-based; assay type: cell-based; design: expressed in transfected cells; host or cells: HEK293; Emax: dose or concentration left out as unconfirmed
T2 sequence (P41595 whole entry): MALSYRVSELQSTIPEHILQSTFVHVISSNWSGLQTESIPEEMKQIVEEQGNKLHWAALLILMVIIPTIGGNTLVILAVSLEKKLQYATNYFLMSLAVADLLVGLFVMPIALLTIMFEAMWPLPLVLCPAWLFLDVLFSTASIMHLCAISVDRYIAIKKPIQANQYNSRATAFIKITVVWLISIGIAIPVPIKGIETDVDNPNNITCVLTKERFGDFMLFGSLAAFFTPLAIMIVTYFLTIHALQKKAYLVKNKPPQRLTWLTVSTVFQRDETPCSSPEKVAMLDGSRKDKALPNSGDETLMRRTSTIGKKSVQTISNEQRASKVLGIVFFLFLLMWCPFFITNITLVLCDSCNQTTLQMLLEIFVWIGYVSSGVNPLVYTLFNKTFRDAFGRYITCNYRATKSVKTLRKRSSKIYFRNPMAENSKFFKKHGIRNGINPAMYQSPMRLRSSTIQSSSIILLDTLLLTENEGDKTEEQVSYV

[3] = molecular target: T2, 5-HT2B; test: In vitro receptor binding ([3H]-LSD), 5-HT2B; design: expressed in transfected cells; host or cells: HEK293 (membranes); conditions: for Binding ([3H]-LSD) % Inh: 5-HT2B, HEK293 membrane, radioligand 3H-LSD; for affinity at 5-HT2B: in words
[4] = molecular target: T1, 5-HT2C; test: In vitro receptor binding ([3H]-LSD), 5-HT2C; design: expressed in transfected cells; host or cells: HEK293 (membranes); conditions: for Binding ([3H]-LSD) % Inh: 5-HT2C, HEK293 membrane, radioligand 3H-LSD; for affinity at 5-HT2C: in words; for affinity selectivity for 5-HT2C over 5-HT2A: ratio of Ki
[5] = molecular target: T3, 5-HT2A (Homo sapiens, UniProt P28223); test: biochemical; assay type: binding; design: expressed in transfected cells; host or cells: HEK293 (membranes)
T3 sequence (P28223 whole entry): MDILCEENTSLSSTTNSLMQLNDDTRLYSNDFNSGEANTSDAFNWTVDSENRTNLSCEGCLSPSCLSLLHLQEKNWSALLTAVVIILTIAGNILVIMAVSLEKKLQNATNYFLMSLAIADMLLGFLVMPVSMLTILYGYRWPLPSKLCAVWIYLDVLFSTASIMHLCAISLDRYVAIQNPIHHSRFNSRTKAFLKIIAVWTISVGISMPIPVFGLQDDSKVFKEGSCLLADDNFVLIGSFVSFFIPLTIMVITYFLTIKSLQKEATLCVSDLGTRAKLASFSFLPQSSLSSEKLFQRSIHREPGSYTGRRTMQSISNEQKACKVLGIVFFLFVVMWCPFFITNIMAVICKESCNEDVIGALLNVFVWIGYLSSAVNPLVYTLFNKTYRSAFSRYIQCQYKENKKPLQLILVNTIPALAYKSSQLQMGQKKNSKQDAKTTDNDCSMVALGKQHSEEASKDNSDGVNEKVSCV

[6] = molecular target: T3, 5-HT2A; test: cell-based; assay type: cell-based; design: expressed in transfected cells; host or cells: HEK293; Emax: dose or concentration left out as unconfirmed
[7] = tested on: 5-HT2A receptor; conditions: Flanagan et al. 2020; cited from earlier work
[8] = tested on: TNF-α induced inflammation; conditions: Yu et al. 2008; cited from earlier work

| Structure (SMILES) | Bottom [1] | HillSlope [1] | EC50 ([1]; EC50) [nM] | Emax ([1]; HEK293, read-out: IP-One % MAX) [%] | EC50 ([1]; IP-One EC50) [nM] | Emax ([1]; read-out: Top) [%] | Bottom [2] | HillSlope [2] | functional activity at 5-HT2B [2] | EC50 ([2]; EC50) [nM] | Emax ([2]; HEK293, read-out: IP-One % MAX) [%] | EC50 ([2]; IP-One EC50) [nM] | Emax ([2]; read-out: Top) [%] | Ki [3] [nM] | Binding ([3H]-LSD) % Inh [3] [%] | Ki [4] [nM] | Binding ([3H]-LSD) % Inh [4] [%] | affinity at 5-HT2C [4] | affinity selectivity for 5-HT2C over 5-HT2A [4] | Binding ([3H]-LSD) % Inh [5] | also measured |
| --- | --- | --- | --- | --- | --- | --- | --- | --- | --- | --- | --- | --- | --- | --- | --- | --- | --- | --- | --- | --- | --- |
| COc1cc(I)c(OC)c2c1C(CN)C2 (stereo not drawn) [Compound 2, (3-iodo-2,5-dimethoxybicyclo[4.2.0]octa-1,3,5-trien-7-yl)methanamine] | 3.427 % of control | 1.279 | 58 | 122 | 41 | 136 | 3.780 % of control | 1.531 | minimal functional activity | 89.1 | 49 | > 300 | 56.2 | 28 | 77 | 3 | 96 | low nanomolar affinity | approximately 6 fold | 2A: 17 nM (96%) | affinity at 5-HT2B [3]: low nanomolar affinity; Ki [5]: 17 nM; affinity at 5-HT2A [5]: low nanomolar affinity; affinity selectivity for 5-HT2A over 5-HT2B [5]: approximately 1.6 fold; Bottom [6]: 5.304 % of control; HillSlope [6]: 1.338; functional selectivity for 5-HT2A over 5-HT2C [6]: approximately 4 fold; EC50 ([6]; EC50): 10.1 nM; Emax ([6]; HEK293, read-out: IP-One % MAX): 127%; EC50 ([6]; IP-One EC50): 10 nM; Emax ([6]; read-out: Top): 124% |
| CCc1cc(OC)c2c(c1OC)CC2CN (stereo not drawn) [Compound 4, (3-ethyl-2,5-dimethoxybicyclo[4.2.0]octa-1,3,5-trien-7-yl)methanamine] | 1.236 % of control | 1.410 | 10.8 | 104 | 11 | 102 | −0.2984 % of control | 1.088 | significant functional activity | 27.4 | 70 | 70 | 72.8 | 43 | 73 | 4 | 89 | low nanomolar affinity | approximately 6.5 fold | 2A: 26 nM (90%) | affinity at 5-HT2B [3]: low nanomolar affinity; Ki [5]: 26 nM; affinity at 5-HT2A [5]: low nanomolar affinity; affinity selectivity for 5-HT2A over 5-HT2B [5]: approximately 1.6 fold; Bottom [6]: −0.4425 % of control; HillSlope [6]: 1.033; functional selectivity for 5-HT2A over 5-HT2B [6]: approximately 17.5 fold; functional selectivity for 5-HT2A over 5-HT2C [6]: approximately 2.75 fold; EC50 ([6]; EC50): 3.77 nM; Emax ([6]; HEK293, read-out: IP-One % MAX): 114%; EC50 ([6]; IP-One EC50): 4 nM; Emax ([6]; read-out: Top): 108% |
| COc1ccc(OC)c(CCN)c1 [Compound 2C-H, 2,5-dimethoxyphenethylamine] |  |  |  |  |  |  |  |  |  |  |  |  |  |  |  |  |  |  |  |  | anti-inflammatory pharmacophore [7]: primary pharmacophore for anti-inflammatory phenethylamine 5-HT2A receptor agonists |
| COc1cc(CC(C)C)c(OC)c2c1C(CN)C2 (stereo not drawn) [Compound 8, (3-isobutyl-2,5-dimethoxybicyclo[4.2.0]octa-1,3,5-trien-7-yl)methanamine] | 2.175 % of control | 1.285 | 8.73 | 117 | 9 | 120 | −0.5387 % of control | 0.5893 | moderate functional activity | 261000 | 51 | 297 | 51.2 | > 95 | 29 | 4 | 93 | low nanomolar affinity | approximately 33 fold | 2A: 133 nM (65%) | Ki [5]: 133 nM; Bottom [6]: 2.988 % of control; HillSlope [6]: 1.426; functional selectivity for 5-HT2A over 5-HT2B [6]: approximately 148.5 fold; functional selectivity for 5-HT2A over 5-HT2C [6]: approximately 4.5 fold; EC50 ([6]; EC50): 2.4 nM; Emax ([6]; HEK293, read-out: IP-One % MAX): 113%; EC50 ([6]; IP-One EC50): 2 nM; Emax ([6]; read-out: Top): 120% |
| CC1CC(C)N1C(=O)[C@@H]1C=C2c3cccc4[nH]cc(c34)C[C@H]2N(C)C1 (stereo partly drawn) [LA-SS-Az, lysergic acid 2,4-dimethylazetidide] |  |  |  |  |  |  |  |  |  |  |  |  |  |  |  |  |  |  |  |  | effect on TNF-α induced inflammation [8]: same effect, albeit slightly less potent |
| CCN(CC)C(=O)[C@@H]1C=C2c3cccc4[nH]cc(c34)C[C@H]2N(C)C1 [LSD, lysergic acid diethylamide] |  |  |  |  |  |  |  |  |  |  |  |  |  |  |  |  |  |  |  |  | effect on TNF-α induced inflammation [8]: same effect, albeit slightly less potent |
| COc1cc(Br)c(OC)c2c1[C@H](CN)C2 [Compound 2C-BCB] |  |  |  |  |  |  |  |  |  |  |  |  |  |  |  |  |  |  |  |  | effect on TNF-α induced inflammation [8]: same effect, albeit slightly less potent |
